From the NIST ThermoML archive (doi:10.1021/je100967k)
Where “and” joins values, the source holds several entries; their conditions need not be identical. Equal values may be shown once. ± gives the expanded uncertainty stated by the source.

How the values were obtained:
[1] = refractive index (Na D-line) (dimensionless); settings: 101.33 kPa, Liquid, Standard Abbe refractometry
[2] = 101 kPa, Liquid; for speed of sound: Pulse-echo method
[3] = xn = mol fraction of the nth substance listed; settings: 101 kPa, Liquid; for speed of sound: Pulse-echo method
[4] = refractive index (Na D-line) (dimensionless); xn = mol fraction of the nth substance listed; settings: 101 kPa, Liquid, Standard Abbe refractometry

## NCCO [2-aminoethan-1-ol]
[1]; 293.15 K
  refractive index: 1.4525 ± 0.0005
[1]; 303.15 K
  refractive index: 1.4488 ± 0.0005
[1]; 313.15 K
  refractive index: 1.4449 ± 0.0005
[1]; 323.15 K
  refractive index: 1.4417 ± 0.0005
[2]; 293.15 K
  mass density: 1016.65 ± 0.52 kg/m3
  viscosity: 24.61 ± 0.35 mPa·s
  speed of sound: 1735.9 ± 1.4 m/s
[2]; 303.15 K
  mass density: 1008.74 ± 0.51 kg/m3
  viscosity: 14.96 ± 0.24 mPa·s
  speed of sound: 1703.7 ± 1.4 m/s
[2]; 313.15 K
  mass density: 1000.77 ± 0.49 kg/m3
  viscosity: 9.839 ± 0.15 mPa·s
  speed of sound: 1671.2 ± 1.4 m/s
[2]; 323.15 K
  mass density: 992.75 ± 0.5 kg/m3
  viscosity: 6.902 ± 0.11 mPa·s
  speed of sound: 1638.8 ± 1.3 m/s

## CN1CCCC1=O [N-methylpyrrolidone]
[1]; 293.15 K
  refractive index: 1.4706 ± 0.0006 and 1.4691 ± 0.0006
[1]; 303.15 K
  refractive index: 1.4664 ± 0.0006 and 1.4647 ± 0.0006
[1]; 313.15 K
  refractive index: 1.4621 ± 0.0006 and 1.4603 ± 0.0006
[1]; 323.15 K
  refractive index: 1.4576 ± 0.0006 and 1.4559 ± 0.0006
[2]; 293.15 K
  mass density: 1032.87 ± 0.55 kg/m3
  viscosity: 1.858 ± 0.03 mPa·s
  speed of sound: 1565.3 ± 1.4 m/s
[2]; 303.15 K
  mass density: 1023.95 ± 0.53 kg/m3
  viscosity: 1.553 ± 0.025 mPa·s
  speed of sound: 1526.5 ± 1.3 m/s
[2]; 313.15 K
  mass density: 1015.03 ± 0.52 kg/m3
  viscosity: 1.324 ± 0.022 mPa·s
  speed of sound: 1487.8 ± 1.3 m/s
[2]; 323.15 K
  mass density: 1006.1 ± 0.5 kg/m3
  viscosity: 1.146 ± 0.019 mPa·s
  speed of sound: 1450.2 ± 1.3 m/s

## CN1CCCC1=O [N-methylpyrrolidone] + NCCO
[3]; 293.15 K, x1 = 1
  speed of sound: 1565.3 ± 1.4 m/s
  mass density: 1032.87 ± 0.55 kg/m3
  viscosity: 1.858 ± 0.03 mPa·s
[3]; 303.15 K, x1 = 1
  speed of sound: 1526.5 ± 1.3 m/s
  mass density: 1023.95 ± 0.53 kg/m3
  viscosity: 1.553 ± 0.025 mPa·s
[3]; 313.15 K, x1 = 1
  speed of sound: 1487.8 ± 1.3 m/s
  mass density: 1015.03 ± 0.52 kg/m3
  viscosity: 1.324 ± 0.022 mPa·s
[3]; 323.15 K, x1 = 1
  speed of sound: 1450.2 ± 1.3 m/s
  mass density: 1006.1 ± 0.5 kg/m3
  viscosity: 1.146 ± 0.019 mPa·s
[4]; 293.15 K, x1 = 1
  refractive index: 1.4691 ± 0.0006
[4]; 303.15 K, x1 = 1
  refractive index: 1.4647 ± 0.0006
[4]; 313.15 K, x1 = 1
  refractive index: 1.4603 ± 0.0006
[4]; 323.15 K, x1 = 1
  refractive index: 1.4559 ± 0.0006

## CCO [ethanol]
[1]; 293.15 K
  refractive index: 1.3616 ± 0.0005
[1]; 303.15 K
  refractive index: 1.3574 ± 0.0005
[1]; 313.15 K
  refractive index: 1.3532 ± 0.0005
[1]; 323.15 K
  refractive index: 1.3493 ± 0.0005
[2]; 293.15 K
  mass density: 789.54 ± 0.73 kg/m3
  viscosity: 1.116 ± 0.018 mPa·s
  speed of sound: 1162.3 ± 0.9 m/s
[2]; 303.15 K
  mass density: 780.94 ± 0.75 kg/m3
  viscosity: 0.9502 ± 0.016 mPa·s
  speed of sound: 1128.9 ± 0.9 m/s
[2]; 313.15 K
  mass density: 772.2 ± 0.77 kg/m3
  viscosity: 0.7899 ± 0.013 mPa·s
  speed of sound: 1095.4 ± 0.9 m/s
[2]; 323.15 K
  mass density: 763.29 ± 0.78 kg/m3
  viscosity: 0.6304 ± 0.011 mPa·s
  speed of sound: 1071.9 ± 0.9 m/s

## CCO [ethanol] + CN1CCCC1=O
[3]; 293.15 K, x2 = 0
  speed of sound: 1162.3 ± 0.9 m/s
  mass density: 789.54 ± 0.73 kg/m3
  viscosity: 1.116 ± 0.018 mPa·s
[3]; 303.15 K, x2 = 0
  speed of sound: 1128.9 ± 0.9 m/s
  mass density: 780.94 ± 0.75 kg/m3
  viscosity: 0.9502 ± 0.016 mPa·s
[3]; 313.15 K, x2 = 0
  speed of sound: 1095.4 ± 0.9 m/s
  mass density: 772.2 ± 0.77 kg/m3
  viscosity: 0.7899 ± 0.013 mPa·s
[3]; 323.15 K, x2 = 0
  speed of sound: 1071.9 ± 0.9 m/s
  mass density: 763.29 ± 0.78 kg/m3
  viscosity: 0.6304 ± 0.011 mPa·s
[4]; 293.15 K, x2 = 0
  refractive index: 1.3616 ± 0.0005
[4]; 303.15 K, x2 = 0
  refractive index: 1.3574 ± 0.0005
[4]; 313.15 K, x2 = 0
  refractive index: 1.3532 ± 0.0005
[4]; 323.15 K, x2 = 0
  refractive index: 1.3493 ± 0.0005
